Assay results taken from patent publication US12172946B2, “Compound containing diphenylmethane structure and use thereof” (GUANGZHOU TROJAN PHARMATEC LTD., priority 2019, dated 2024).

Test: solubility of the compound in common solvents
Format: physicochemical
Settings: 25-30° C.; for solubility in DMF: N,N-dimethylformamide; for solubility in i-PrOAc: isopropyl acetate; for solubility in MTBE: methyl tert-butyl ether
Experimental: The solubility of the compound of the present invention in common solvents was investigated (25-30° C.), and the results are shown in Table 1. It can be seen from Table 1 that the compound of the present invention has good solubility in all of heptane, isopropyl acetate (i-PrOAc), methyl tert-butyl ether (MTBE) and N,N-dimethylformamide (DMF), and particularly, the solubility in N,N-dimethylformamide is much higher than Comparative Examples.

| solubility in DMSO | solubility in MeOH | solubility in DMF | solubility in Heptane | solubility in i-PrOAc | solubility in MTBE | Compound |
| --- | --- | --- | --- | --- | --- | --- |
| <1% | <1% | >30% | >10% | >25% | >30% | 4,4′-di((5-(3,4,5-tris(isononyloxy)-benzamido)-2-one-3-aza-hexyl)oxy)-benzhydrylamine [DPA-009] |
| <1% | <1% | >30% | >50% | >100% | >100% | 4-(2-(2-(3,4,5-tri(octa/decy/dodecyloxy)-benzamido)-ethoxy)-ethoxy)-benzhydrylamine [DPA-024] |
| <1% | <1% | >100% | >100% | >100% | >100% | 4-(2-(2-(3,4,5-tris(isomeric decyloxy)-benzamido)-ethoxy)-ethoxy)-benzhydrylamine [DPA-006] |
| <1% | <1% | >20% | >25% | >30% | >30% | CC(C)CCCCCOc1cc(C(=O)NCCOCCOc2ccc(C(N)c3ccc(OCCOCCNC(=O)c4cc(OCCCCCC(C)C)c(OCCCCCC(C)C)c(OCCCCCC(C)C)c4)cc3)cc2)cc(OCCCCCC(C)C)c1OCCCCCC(C)C [DPA-001, 4,4′-di(2-(2-(3,4,5-tris(isooctyloxy)-benzamido)-ethoxy)-ethoxy) benzhydrylamine] |
| <1% | <1% | >20% | >50% | >100% | >100% | CCCCCCCCCCCCCOc1cc(C(=O)NCCOCCOc2ccc(C(N)c3ccc(OCCOCCNC(=O)c4cc(OCCCCCCCCCCCCC)c(OCCCCCCCCCCCCC)c(OCCCCCCCCCCCCC)c4)cc3)cc2)cc(OCCCCCCCCCCCCC)c1OCCCCCCCCCCCCC [DPA-003, 4,4′-di(2-(2-(3,4,5-tris(isomeric tridecyloxy)-benzamido)-ethoxy)-ethoxy)-benzhydrylamine] |
| <1% | <1% | >100% | >100% | >100% | >100% | CCCCCCCCCCCCCOc1cc(C(=O)NCCOCCOc2ccc(C(N)c3ccccc3)cc2)cc(OCCCCCCCCCCCCC)c1OCCCCCCCCCCCCC (stereo not drawn) [DPA-007, 4-(2-(2-(3,4,5-tris(isomeric tridecyloxy)-benzamido)-ethoxy)-ethoxy)-benzhydrylamine] |
| <1% | <1% | >150% | >100% | >100% | >50% | CC(C)CCCCCCOc1cc(C(=O)NCCOCCOc2ccc(C(N)c3ccc(Cl)cc3)cc2)cc(OCCCCCCC(C)C)c1OCCCCCCC(C)C (stereo not drawn) [DPA-011, 4-(2-(2-(3,4,5-tris(isononyloxy)-benzamido)-ethoxy)-ethoxy)-4′-chloro-benzhydrylamine] |
| <1% | <1% | >50% | >50% | >70% | >50% | CCCCCCCCCCCCCOc1ccc(CC(=O)NCCOCCOc2ccc(C(N)c3ccccc3)cc2)cc1OCCCCCCCCCCCCC (stereo not drawn) [DPA-013, 4-(2-(2-(3,4-di(isomeric tridecyloxy)-phenylacetamido)-ethoxy)-ethoxy)-benzhydrylamine] |
| <10% | <10% | >40% | >30% | >50% | >50% | CC(C)CCCCCCCCCCCCCCC(=O)NCCCCC(NC(=O)CCCCCCCCCCCCCCC(C)C)C(=O)NCCOCCOc1ccc(C(N)c2ccccc2)cc1 (stereo not drawn) [DPA-014, 4-(2-(2-(2,6-diisostearamido-hexanamido)-ethoxy)-ethoxy)-benzhydrylamine] |
| <1% | <1% | >100% | >50% | >100% | >100% | CCCCCCCCCCCCCOc1cc(C(=O)NCCCC(=O)NCCOCCOc2ccc(C(N)c3ccccc3)cc2)cc(OCCCCCCCCCCCCC)c1OCCCCCCCCCCCCC (stereo not drawn) [DPA-015, 4-(2-(2-(4-(3,4,5-tri(isomeric tridecyloxy)-benzamido)-butyrylamido)-ethoxy)-ethoxy)-benzhydrylamine] |
| <5% | <5% | >100% | >100% | >100% | >100% | CCCCCCCCCCCCCOc1cc(C(=O)NCCCCC(NC(=O)c2cc(OCCCCCCCCCCCCC)c(OCCCCCCCCCCCCC)c(OCCCCCCCCCCCCC)c2)C(=O)NCCOCCOc2ccc(C(N)c3ccccc3)cc2)cc(OCCCCCCCCCCCCC)c1OCCCCCCCCCCCCC (stereo not drawn) [DPA-017] |
| <5% | <10% | >100% | >5% | >100% | >100% | CC(CCC(C(=O)NCCOCCOc1ccc(C(N)c2ccc(OCCOCCNC(=O)C(CCC(C)CC(C)(C)C)C(C)CC(C)(C)C)cc2)cc1)C(C)CC(C)(C)C)CC(C)(C)C (stereo not drawn) [DPA-018, 4,4′-di(2-(2-(isostearamido)-ethoxy)-ethoxy)-benzhydrylamine] |
| <5% | <10% | >50% | >50% | >100% | >100% | CC(CCC(C(=O)N(CCOCCOc1ccc(C(N)c2ccccc2)cc1)Cc1ccccc1)C(C)CC(C)(C)C)CC(C)(C)C (stereo not drawn) [DPA-019] |
| <5% | <5% | >100% | >100% | >100% | >100% | CC(CCC(C(=O)N(CCOCCOc1ccc(C(N)c2ccc(OCCOCCN(Cc3ccccc3)C(=O)C(CCC(C)CC(C)(C)C)C(C)CC(C)(C)C)cc2)cc1)Cc1ccccc1)C(C)CC(C)(C)C)CC(C)(C)C (stereo not drawn) [DPA-020] |
| <5% | <5% | >30% | >50% | >50% | >50% | CCCCCCCCCCCCOc1cc(C(=O)NCCOCCOc2ccc(C(N)c3ccccc3)cc2)cc(OCCCCCCCCCCCC)c1OCCCCCCCCCCCC (stereo not drawn) [DPA-023, 4-(2-(2-(3,4,5-tri(n-dodecyloxy)-benzamido)-ethoxy)-ethoxy)-benzhydrylamine] |

| Compound | solubility in DMSO | solubility in MeOH | solubility in DMF | solubility in Heptane | solubility in i-PrOAc | solubility in MTBE |
| --- | --- | --- | --- | --- | --- | --- |
| 4,4′-di(2-(2-(3,4,5-tris(2,3-dihydrophytoxy)-benzamido)-ethoxy)-ethoxy)-benzhydrylamine [DPA-004] | <1% | <1% | >1% | >50% | >100% | >100% |
